Measurements as given in patent US20120095046A1, “Amido-Isothiazole Compounds and Their Use as Inhibitors of 11Beta-HSD1 for the Treatment of Metabolic Syndrome and Related Disorders” (THE UNIVERSITY OF EDINBURGH, priority 2009, published 2012).

Columns and labels:
[1] = molecular target: T1, human 11β-HSD1 enzyme (Homo sapiens, UniProt P28845); assay: Cellular in vitro 11β-HSD1 enzyme inhibition assay (SPA, HEK293/11β-HSD1 cells); assay type: cell-based; conditions: HEK293 cells stably transfected with human 11β-HSD1; 22 nM tritiated cortisone, 2 hours
T1 construct: stably transfected with a construct containing the full-length gene coding for the human 11β-HSD1 enzyme; expressed in transfected cells; HEK293/11β-HSD1)
Method: Cellular In Vitro 11β-HSD1 Enzyme Inhibition Assay
Compounds were assessed by a Scintillation Proximity Assay (SPA) performed according to the following protocol:
HEK293 cells were stably transfected with a construct containing the full-length gene coding for the human 11β-HSD1 enzyme to create HEK293/11β-HSD1 cells. Cells were routinely cultured in DMEM containing 10% calf foetal serum, 1% glutamine, and 1% penicillin and streptomycin. Prior to assay, cells were plated at 2×10^4 cells/well in 96-well poly-D-Lys coated flat-bottomed microplates and incubated in 5% CO2, 95% O2 at 37° C. for 24 hours. The media in each well was removed immediately before assay.
Compounds to be tested were dissolved in DMSO at 10 mM and serially diluted into water containing 10% DMSO. Diluted compounds at a volume of 10 μL were added to wells of a 96-well V-bottomed microplate. A solution of DMEM, 1% glutamine, 1% penicillin and streptomycin, and 22 nM tritiated cortisone was prepared and 90 μL added to each well of the assay plate. This solution (100 μL/well) was transferred to the plate containing the cells. The plate was then incubated in 5% CO2, 95% O2 at 37° C. for 2 hours.
Following this incubation, 50 μL of the assay solution was transferred to each well of a 96-well scintillation microplate. A mixture consisting of anti-mouse YSi SPA beads, pre-mixed with anti-cortisol antibody in assay buffer (50 mM Tris.HCl, pH 7.0; 300 mM NaCl; 1 mM EDTA, 5% glycerol) was prepared and 50 μL added to each well of the scintillation microplate. An adhesive strip was applied to the microplate and the plate gently shaken for at least 2 hours at room temperature, and then spun briefly on a low speed centrifuge. The plate was read on a scintillation counter suitable for 96-well microplates. For the calculation of percentage inhibition, a series of wells were added to the plate that represented the assay maximum and the assay minimum: one set that contained substrate without cells (minimum) and another set that contained substrate and cells without any compound (maximum).
The calculation of median inhibitory concentration (IC50) values for the compounds was performed using GraphPad Prism® software. Dose-response curves for each compound were plotted as fractional inhibition and data fitted to the four parameter logistic equation.

[2] = molecular target: T2, human 11β-HSD2 (Homo sapiens, UniProt P80365); assay: Cellular in vitro 11β-HSD2 enzyme inhibition assay (CHO cells, TLC/phosphoimager); assay type: cell-based; conditions: CHO cells stably transfected with human 11β-HSD2; 22 nM tritiated cortisol, 16 hours
T2 construct: CHO cells stably transfected with the full-length gene coding for human 11β-HSD2 were used; expressed in transfected cells
T2 sequence (P80365 1-405): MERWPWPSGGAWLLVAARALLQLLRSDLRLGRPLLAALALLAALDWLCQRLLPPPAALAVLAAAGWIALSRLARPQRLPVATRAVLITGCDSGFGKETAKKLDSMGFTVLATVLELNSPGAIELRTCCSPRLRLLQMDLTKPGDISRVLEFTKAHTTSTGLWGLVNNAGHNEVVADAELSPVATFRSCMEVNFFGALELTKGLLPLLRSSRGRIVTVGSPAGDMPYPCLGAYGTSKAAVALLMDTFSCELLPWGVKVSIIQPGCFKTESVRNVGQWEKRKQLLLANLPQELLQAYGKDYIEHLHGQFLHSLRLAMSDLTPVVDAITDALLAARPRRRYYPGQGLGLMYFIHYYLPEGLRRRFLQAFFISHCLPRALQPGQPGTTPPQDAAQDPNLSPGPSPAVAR
Method: Cellular In Vitro 11β-HSD2 Enzyme Inhibition Assay
For measurement of inhibition of 11β-HSD2, CHO cells stably transfected with the full-length gene coding for human 11β-HSD2 were used. Assays were carried out in 96-well microplates containing 1×10^5 cells/well. Controls and compounds were plated as above, so that the final DMSO concentration in each well was 1%. To initiate the assay, 90 μL of a solution of HAMS F-12 medium containing 1% glutamine, 1% penicillin and streptomycin, and 22 nM tritiated cortisol was added to each well of the assay plate. The plate was then incubated in 5% CO2, 95% O2 at 37° C. for 16 hours.
The assay solutions were transferred to glass tubes and 20 μL ethyl acetate added to each tube. Each tube was vortexed thoroughly and the upper layer containing the tritiated steroid transferred to a fresh glass tube. The solvent was evaporated by placing the tubes in a heating block at 65° C. under a stream of Nitrogen gas. 20 μL ethanol was added to each of the dried samples and vortexed briefly. Each sample was applied to a silica TLC plate and the plate dried. The plate was placed vertically in a glass tank containing 92% chloroform:8% ethanol and the solvent allowed to rise up the plate. The plate was dried, placed in an imaging cassette, and overlayed with a tritium imaging plate for 1-2 days. The amount of enzyme inhibition in each sample was determined by measuring the intensity of the substrate and product spots using a phosphoimager.
IC50 values for inhibitors were determined as described for 11β-HSD1.

T1 sequence (P28845 whole entry): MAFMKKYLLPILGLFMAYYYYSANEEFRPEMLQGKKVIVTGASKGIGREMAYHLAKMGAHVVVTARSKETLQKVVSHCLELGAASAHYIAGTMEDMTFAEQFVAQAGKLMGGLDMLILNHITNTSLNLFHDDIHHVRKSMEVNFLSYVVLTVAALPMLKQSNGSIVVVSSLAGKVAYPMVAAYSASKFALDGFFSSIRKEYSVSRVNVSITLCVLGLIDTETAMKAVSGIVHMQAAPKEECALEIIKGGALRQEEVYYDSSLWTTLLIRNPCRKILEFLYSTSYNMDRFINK

SMILES | IC50 [1] | IC50 [2]
O=C1c2ccccc2C(=O)N1c1cc(C(=O)N2CCC[C@@H]3CCCC[C@@H]32)ns1 [BB-03, 2-[3-((4aS,8aS)-Octahydro-quinoline-1-carbonyl)-isothiazol-5-yl]-isoindole-1,3-dione] | ≤ 500 nM | > 10000 nM
O=C(c1cnsc1-c1ccccc1)N1CCCC2CCCCC21 (stereo not drawn) [AA-01, (Octahydro-quinolin-1-yl)-(5-phenyl-isothiazol-4-yl)-methanone] | 59 nM | > 10000 nM
O=C(c1cc(C2CCOCC2)sn1)N1CCC[C@@H]2CCCC[C@@H]21 [CC-01, (4aS,8aS)-Octahydro-quinolin-1-yl-[5-(tetrahydro-pyran-4-yl)-isothiazol-3-yl]-methanone] | 62 nM | > 10000 nM

Further lines, results first:

IC50 [1] | IC50 [2] | SMILES
≤ 500 nM | > 10000 nM | O=C(c1cc(-c2cn[nH]c2)sn1)N1CCCC1c1ccc(F)cc1 (stereo not drawn) [BB-02, [2-(4-Fluoro-phenyl)-pyrrolidin-1-yl]-[5-(1H-pyrazol-4-yl)-isothiazol-3-yl]-methanone]
≤ 500 nM | > 10000 nM | O=C(c1cc(-c2ccccc2)sn1)N1CCCC2CCCCC21 (stereo not drawn) [AA-02, (Octahydro-quinolin-1-yl)-(5-phenyl-isothiazol-3-yl)-methanone]
18 nM | > 10000 nM | O=C(c1cc(-c2cn[nH]c2)sn1)N1CCC[C@@H]2CCCC[C@@H]21 [BB-01, (4aS,8aS)-Octahydro-quinolin-1-yl-[5-(1H-pyrazol-4-yl)-isothiazol-3-yl]-methanone]
